Reference: ChEMBL document CHEMBL1201862, “PubChem BioAssay data set” (2004)
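Tested at 5 concentrations; 48 h exposure; 96-well plates; endpoints linearly interpolated, else capped at highest concentration. GI50 = concentration required for 50% inhibition of growth.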 Calls of active or inactive are those of the source. Rule as the data show it: active = GI50 up to about 1.1 µM and inactive = higher.

Legend:
Test in all cases: DTP human tumour cell line panel, 48 h
LOX IMVI = test system: LOX IMVI
SN12C = test system: SN12C
MOLT-4 = test system: MOLT-4
SNB-19 = test system: SNB-19
NCI/ADR-RES = test system: NCI/ADR-RES
SF-295 = test system: SF-295
PC-3 = test system: PC-3
DU-145 = test system: DU-145
UACC-257 = test system: UACC-257
IGROV-1 = test system: IGROV-1
SW-620 = test system: SW-620
SK-MEL-5 = test system: SK-MEL-5
NCI-H23 = test system: NCI-H23
HOP-62 = test system: HOP-62
SK-MEL-28 = test system: SK-MEL-28
ACHN = test system: ACHN
OVCAR-5 = test system: OVCAR-5
SK-MEL-2 = test system: SK-MEL-2
786-0 = test system: 786-0
CAKI-1 = test system: CAKI-1
MDA-N = test system: MDA-N
NCI-H460 = test system: NCI-H460
UO-31 = test system: UO-31
NCI-H226 = test system: NCI-H226
HCT-116 = test system: HCT-116
OVCAR-3 = test system: OVCAR-3
A549 = test system: A549
K562 = test system: K562
TK-10 = test system: TK-10
SR = test system: SR
MCF7 = test system: MCF7
OVCAR-8 = test system: OVCAR-8
MDA-MB-231 = test system: MDA-MB-231
BT-549 = test system: BT-549
NCI-H522 = test system: NCI-H522
RPMI-8226 = test system: RPMI-8226
UACC-62 = test system: UACC-62
MDA-MB-435 = test system: MDA-MB-435
SF-268 = test system: SF-268
HCT-15 = test system: HCT-15
Hs-578T = test system: Hs-578T
HCC 2998 = test system: HCC 2998
EKVX = test system: EKVX
CCRF-CEM = test system: CCRF-CEM
HL-60 = test system: HL-60
HOP-92 = test system: HOP-92
A498 = test system: A498
COLO 205 = test system: COLO 205
M14 = test system: M14
T47D = test system: T47D
SK-OV-3 = test system: SK-OV-3
SF-539 = test system: SF-539
SNB-75 = test system: SNB-75
U-251 = test system: U-251
RXF 393 = test system: RXF 393
KM12 = test system: KM12
HT-29 = test system: HT-29
OVCAR-4 = test system: OVCAR-4
Malme-3M = test system: Malme-3M

Measured: GI50

CCCCCCCCCCCCc1ccsc1-c1ccc(-c2ccc(-c3sccc3CCCCCCCCCCCC)s2)s1
inactive: LOX IMVI > 100 µM | SN12C > 100 µM | MOLT-4 > 100 µM | SNB-19 > 100 µM | NCI/ADR-RES > 100 µM | SF-295 > 100 µM | PC-3 > 100 µM | DU-145 > 100 µM | UACC-257 > 100 µM | IGROV-1 > 100 µM | SW-620 > 100 µM | SK-MEL-5 > 100 µM | NCI-H23 > 100 µM | HOP-62 > 100 µM | SK-MEL-28 > 100 µM | ACHN > 100 µM | OVCAR-5 > 100 µM | SK-MEL-2 > 100 µM | 786-0 > 100 µM | CAKI-1 > 100 µM | MDA-N > 100 µM | NCI-H460 > 100 µM | UO-31 > 100 µM | NCI-H226 > 100 µM | HCT-116 > 100 µM | OVCAR-3 > 100 µM | A549 > 100 µM | K562 > 100 µM | TK-10 > 100 µM | SR > 100 µM | MCF7 > 100 µM | OVCAR-8 > 100 µM | MDA-MB-231 > 100 µM | BT-549 > 100 µM | NCI-H522 > 100 µM | RPMI-8226 > 100 µM | UACC-62 > 100 µM | MDA-MB-435 > 100 µM | SF-268 > 100 µM | Hs-578T > 100 µM | HCC 2998 > 100 µM | EKVX > 100 µM | CCRF-CEM > 100 µM | HL-60 > 100 µM | HOP-92 > 100 µM | A498 > 100 µM | COLO 205 > 100 µM | M14 > 100 µM | T47D > 100 µM | SK-OV-3 > 100 µM | SF-539 > 100 µM | SNB-75 > 100 µM | U-251 > 100 µM | RXF 393 > 100 µM | KM12 > 100 µM | HT-29 > 100 µM
> 100 µM: HCT-15

CC(NC1=NCCO1)c1ccsc1 (stereo not given)
inactive: OVCAR-4 24.9 µM | LOX IMVI 20.3 µM | MOLT-4 22.7 µM | SNB-19 37.3 µM | NCI/ADR-RES > 100 µM | SF-295 17.8 µM | PC-3 21.1 µM | DU-145 43.1 µM | UACC-257 14.4 µM | IGROV-1 34.8 µM | SW-620 21.5 µM | SK-MEL-5 20 µM | NCI-H23 64.4 µM | SK-MEL-28 19 µM | ACHN 44.9 µM | OVCAR-5 > 100 µM | SK-MEL-2 21.9 µM | 786-0 18.8 µM | CAKI-1 > 100 µM | MDA-N 24.2 µM | NCI-H460 10.9 µM | UO-31 > 100 µM | NCI-H226 58.1 µM | HCT-116 16.4 µM | OVCAR-3 28.8 µM | A549 39.4 µM | K562 21.4 µM | TK-10 65.5 µM | SR 24.8 µM | MCF7 34.8 µM | OVCAR-8 28.6 µM | MDA-MB-231 18.2 µM | BT-549 31.6 µM | NCI-H522 17.7 µM | RPMI-8226 7.52 µM | UACC-62 17.6 µM | MDA-MB-435 20.9 µM | Hs-578T 11.5 µM | HCC 2998 69.3 µM | Malme-3M 21 µM | EKVX 54.7 µM | CCRF-CEM 19.4 µM | HL-60 21.5 µM | HOP-92 23.6 µM | A498 > 100 µM | COLO 205 17.9 µM | M14 17.6 µM | T47D 33.3 µM | SK-OV-3 71.8 µM | SF-539 16.2 µM | SNB-75 13.2 µM | U-251 18.2 µM | RXF 393 33.5 µM | KM12 18.8 µM | HT-29 15.2 µM
40.7 µM: HCT-15

CC(=O)OCC1OC(n2c(C)cc(C)c(C#N)c2=S)C(OC(C)=O)C(OC(C)=O)C1OC(C)=O (stereo not given)
inactive: OVCAR-4 > 100 µM | LOX IMVI > 100 µM | SN12C > 100 µM | MOLT-4 > 100 µM | SNB-19 > 100 µM | NCI/ADR-RES > 100 µM | SF-295 > 100 µM | PC-3 > 100 µM | DU-145 > 100 µM | UACC-257 > 100 µM | IGROV-1 > 100 µM | SK-MEL-5 > 100 µM | NCI-H23 > 100 µM | HOP-62 > 100 µM | SK-MEL-28 > 100 µM | ACHN > 100 µM | OVCAR-5 > 100 µM | SK-MEL-2 > 100 µM | 786-0 > 100 µM | CAKI-1 > 100 µM | MDA-N > 100 µM | NCI-H460 > 100 µM | UO-31 > 100 µM | NCI-H226 > 100 µM | HCT-116 > 100 µM | OVCAR-3 > 100 µM | A549 > 100 µM | K562 > 100 µM | TK-10 > 100 µM | SR > 100 µM | MCF7 > 100 µM | OVCAR-8 > 100 µM | MDA-MB-231 > 100 µM | BT-549 > 100 µM | NCI-H522 > 100 µM | RPMI-8226 > 100 µM | UACC-62 > 100 µM | MDA-MB-435 > 100 µM | SF-268 > 100 µM | Hs-578T > 100 µM | HCC 2998 > 100 µM | Malme-3M > 100 µM | CCRF-CEM > 100 µM | HL-60 > 100 µM | HOP-92 > 100 µM | A498 > 100 µM | COLO 205 > 100 µM | M14 > 100 µM | T47D > 100 µM | SF-539 > 100 µM | SNB-75 > 100 µM | U-251 > 100 µM | RXF 393 > 100 µM | KM12 > 100 µM | HT-29 > 100 µM
> 100 µM: HCT-15

CN(/N=C(\C(=O)O)c1ccccc1)C1=NCCN1
> 100 µM: HCT-15
inactive: OVCAR-4 > 100 µM | LOX IMVI > 100 µM | SN12C > 100 µM | MOLT-4 > 100 µM | NCI/ADR-RES > 100 µM | SF-295 > 100 µM | PC-3 > 100 µM | DU-145 > 100 µM | UACC-257 > 100 µM | IGROV-1 54.2 µM | SW-620 > 100 µM | SK-MEL-5 > 100 µM | NCI-H23 > 100 µM | HOP-62 > 100 µM | SK-MEL-28 > 100 µM | ACHN > 100 µM | OVCAR-5 > 100 µM | SK-MEL-2 > 100 µM | 786-0 > 100 µM | CAKI-1 > 100 µM | MDA-N > 100 µM | NCI-H460 > 100 µM | UO-31 > 100 µM | NCI-H226 > 100 µM | HCT-116 > 100 µM | OVCAR-3 > 100 µM | A549 > 100 µM | K562 > 100 µM | TK-10 > 100 µM | SR > 100 µM | MCF7 > 100 µM | OVCAR-8 > 100 µM | MDA-MB-231 > 100 µM | BT-549 47.2 µM | NCI-H522 > 100 µM | RPMI-8226 > 100 µM | UACC-62 > 100 µM | MDA-MB-435 > 100 µM | SF-268 > 100 µM | Hs-578T > 100 µM | HCC 2998 > 100 µM | Malme-3M > 100 µM | EKVX 83.6 µM | CCRF-CEM > 100 µM | HL-60 > 100 µM | HOP-92 > 100 µM | A498 > 100 µM | COLO 205 > 100 µM | T47D > 100 µM | SK-OV-3 > 100 µM | SF-539 > 100 µM | SNB-75 > 100 µM | RXF 393 > 100 µM | KM12 > 100 µM | HT-29 > 100 µM
